Source: US20200030288A1, “STATIN FOR PREVENTION/REDUCTION OF ISCHEMIA-RELATED DAMAGE” (Fundacio Institut De Recerca De L'Hospial De La Santa Creu …, priority 2017, published 2020)

Experiments:
[1] = system: mouse model for myocardial ischemia; experiment: Mouse model of myocardial ischemia by coronary ligation: infarct size and 8-OH-dG oxidative damage; assay type: in vivo, Male CH3 mice; conditions: single i.p. dose 15 min after coronary ligation, 45 min ischemia; for reduction of size of infarction (% of total LV wall): vs vehicle-control
Protocol: (§1) Complete LAD coronary artery ligation was performed as follows. Male CH3 mice (8-10 weeks old, weighing 25-30 g) were intubated and anesthesized with a mixture of O2/isoflurane and mechanically ventilated (rate 90 breaths/min, tidal volume 0.1 mL). Rectal temperature was continuously monitored throughout the surgery and maintained within 37-38° C. using a heat pad and heat lamp. An anterior thoracotomy was performed; the heart was exposed and the LAD coronary artery was occluded with an intramural stitch (7-0 silk suture; consistent ligation of the left coronary artery as it emerges from under the left atrium) for 45 minutes. Success of complete coronary ligation was verified by electrocardiographic visualization of the ST-elevation-MI pattern that was monitored by high frequency ultrasounds with the Vevo2100 from Visualsonics and by the visualization of a pale, hypokinetic ventricle distal to the site of occlusion.
Ischemia was continued for another 30 min after administration of the single dose (i.e. altogether 45 min of ischemia), then mice were sacrificed and the heart was carefully excised for infarct size analysis.
(§2) Infarct size was determined by morphometric analysis. For this purpose, all mouse hearts were immersed in fixative solution (4% paraformaldehyde), embedded in OCT compound and cross-sectioned from apex to base (10 μm thick sections 200 μm distanced). Sections were stained with haematoxylin and eosin and morphometric infarct size analysis was determined using image analysis software (ImageJ, NIH). Infarct size was calculated by the sum of myocardial infarct areas between sections and expressed as a percentage of total LV wall. Three measurements per section were determined.
In addition, myocardial oxidative damage was also assessed. For this purpose, ischemic myocardial tissue was cut into 5-μm-thick slices for 8-OH-dG (Abcam ab48508) staining, a measurement indicative of oxidative stress-induced DNA-damage. Staining was calculated by a single blinded observer from an average of 5-fields/animal as % of stained area. Images were captured by Nikon Eclipse 80i microscope and digitized by Retiga 1300i Fast camera.

[2] = system: mouse model of myocardial ischemia; experiment: Mouse coronary ligation model with AMPK inhibitor given before atorvastatin; assay type: in vivo, mice; conditions: Compound C 30 mg/kg i.p. prior to atorvastatin 0.3 mg/kg at 15 min of ischemia; 45 min ischemia
Protocol: as §1
as §2, with “For this purpose, all mouse hearts were immersed in fixative solution (4% paraformaldehyde), embedded in OCT compound and cross-sectioned from apex to base (10 μm thick sections 200 μm distanced).” left out
In addition, myocardial oxidative damage was also assessed. […]

[3] = system: swine model of myocardial ischemia; conditions: 0.3 mg/kg i.v. at 15 min of ischemia
Text: Cardiac rhythm, arterial oxymetry, and arterial pressure were continuously monitored during the procedure. Just before starting the procedure a perfusion of amiodarone and lidocaine was initiated as prophylaxis for malignant left ventricular arrhythmias. All animals of the study were subjected to the same antiarrhythmic pharmacological approach allowing a direct comparison between the groups. By percutaneous approach and fluoroscopy guidance ischemia was induced by complete coronary balloon occlusion of the mid-left anterior descending coronary artery. Contrast angiographies were performed to ensure total coronary occlusion.
Control animals were given intravenous placebo (saline) at 15 min of ischemia. Blood samples (serum) for further assessment of biomarkers of cardiac damage were taken at baseline (i.e. before MI induction or at time=0 min), and at 30 min, 60 min and 90 min after MI induction (ischemia).
Upon taking the 90 min blood sample, the pigs were sacrificed without reperfusion to obtain myocardial tissue for molecular studies and histology.
The concentration of IMA (Ischemic Modified Albumin), CFABP (Cardiac Fatty Acid Binding Protein) and Myoglobin was determined by the respective pig ELISA kits in the blood samples taken 30 min, 60 min and 90 min after MI induction and compared to their baseline values (prior to ischemia induction). These proteins were chosen based on the rationale that they are early markers for cardiac damage assessment due to ischemia.

RhoA = RhoA total and cytosolic/membrane fractions in ischemic myocardium by Western blot; assay type: in vivo, pigs
Protocol: After the ischemic period, the animals' hearts were arrested with potassium chloride and rapidly excised. […] In addition, the separation of the membrane and cytosolic fractions was performed by a modification of the lysis buffer protocol. Briefly, tissue powder was homogenized (1 mol/L NaCl, 20 mmol/L Tris pH 7.4, 1 mmol/L DTT and protease inhibitors) and centrifuged. The supernatant was collected (referred to as the cytosolic fraction) and pellets were resuspended, and the membrane proteins were extracted by incubation in 500 mmol/L Tris-HCl pH 7.4, 20% sodium dodecyl sulfate, 100 mmol/L sodium orthovanadate, and protease inhibitors. The extract was centrifuged and the supernatant was collected as the membrane fraction.
Protein concentration (in total myocardial tissue, in the cytoplasm fraction and in the membrane fraction) was quantified by the Pierce method. RhoA (Santa Cruz) was determined in total and cytosolic and membrane fractions of the ischemic cardiac tissue of all animals by Western Blot analysis. The intensity of the Western blot bands was detected with Chemi-Doc (Bio-Rad) and they were quantified with the Quantity one Software (Bio-Rad). Intensities are expressed in arbitrary units (AU).

eNOS = eNOS activation (P-eNOS Ser1177 / total eNOS) in pig myocardium by Western blot; assay type: in vivo, pigs; conditions: ischemic myocardium
Text: (P-eNOS) or activated eNOS.

caspase-3 = experiment: Caspase-3 activation (cleaved / total caspase-3) in pig myocardium by Western blot; assay type: in vivo, pigs
Protocol: Myocardial tissue of all pigs included in Example 1 and Example 2 was obtained, pulverized and processed with lysis buffer for protein isolation as detailed in Example 6. Protein was quantified by the Pierce method and Western Blot analysis was performed to assess the levels of phosphorylated p53 (Ser15), total p53, cleaved caspase-3 and total caspase-3. The ratios phosphorylated p53/total p53 and cleaved Casp3/total caspase3 were calculated to ascertain how much of protein was activated.

MCP-1/CCL2 = MCP-1/CCL2 mRNA and protein expression in pig myocardium; assay type: in vivo, pigs
Protocol: The myocardium of pigs included in Example 1 and Example 2 was obtained, pulverized and processed with Tripure or lyses buffer for mRNA and protein isolation as detailed in Example 5 and Example 6, respectively. Both the mRNA levels and protein expression of MCP-1 were assessed. The threshold cycle (Ct) values were determined and normalized to the housekeeping gene 18 SrRNA in order to adjust for equal amounts of RNA whereas β-actin was used as protein loading control.

[4] = system: TLR4, TF and MCP-1 in PBMC; experiment: TLR4, TF and MCP-1 expression in circulating PBMC of ischemic pigs; assay type: in vivo
Protocol: Blood samples were also collected in EDTA at baseline (prior to ischemia) and after 90 min of ischemia from the femoral artery for PBMC isolation by the Ficoll method. To this end, 20 ml of blood were collected into EDTA tubes at three tested time-points (0, 30, and 90 min) in all animals. All blood samples were immediately subjected to Ficoll-paque Plus (Amersham Biosciences) density gradient centrifugation to isolate PBMCs. Samples were counted and then directly frozen in liquid nitrogen and stored at −80° C. until mRNA and protein isolation as described in Example 5 and Example 6. The mRNA expression level of the inflammatory markers related to innate immunity TLR4 (Toll-like receptor 4) and MCP-1, as well as […] (tissue factor) were determined by Real Time PCR analyses whereas protein expression of MCP-1 was also assessed. The threshold cycle (Ct) values were determined and normalized to the housekeeping gene 18SrRNA in order to adjust for equal amounts of RNA whereas Ponceau red was used for protein loading control.

rat model for ischemia = experiment: Rat model of myocardial infarction by coronary ligation: scar size 30 days after ischemia; assay type: in vivo, male SD rats; conditions: single dose 0.3 mg/kg 15 min after onset of ischemia; 30 days post-ischemia induction; vs vehicle-controls
Protocol: The study was performed in male SD rats (8-10 weeks old, weighing 250-300 g; Jackson Laboratory). MI was induced by LAD coronary artery ligation for 45 min. […] Afterwards hearts were carefully excised for morphometric assessment of infarct size.

[5] = system: hypercholesterolemic pigs with myocardial ischemia; experiment: Hypercholesterolemic pigs, 90 min LAD balloon occlusion: early cardiac damage markers; assay type: in vivo; conditions: 0.3 mg/kg i.v. at 15 min of ischemia
Protocol: To this end, 14 pigs were fed for 10 days a Western-type hypercholesterolemic diet [20%-saturated fat (beef tallow), 2%-cholesterol, 1%-cholic acid]. This hyperlipidemic diet contains 24.82% proteins, 64.20%of carbohydrates, 10.98% of fats and 16,834.7 kJ.
After this 10 day diet period animals underwent a closed-chest 90 min mid-left anterior descending (LAD) coronary balloon occlusion and the same experimental design described in Example 1.

[6] = system: hypercholesterolemic pigs with myocardial ischemia; experiment: Neutrophil infiltration (anti-Neutrophil Elastase staining) in ischemic myocardium of hypercholesterolemic pigs; assay type: in vivo; conditions: single i.v. dose 15 min after onset of ischemia, vs controls
Protocol: To this end, ischemic myocardial tissue of all hypercholesterolemic pigs included in Example 12 was obtained, embedded in OCT, and stained for neutrophils detection (anti-Neutrophil Elastase; Abcam). Staining was calculated by a single blinded observer from an average of 5-fields/animal as % of stained area. Images were captured by Nikon Eclipse 80i microscope and digitized by Retiga 1300i Fast camera.

AMPK = AMPK activation (P-AMPK Thr172 / total AMPK) in pig myocardium by Western blot; conditions: for levels of P-AMPK: vs controls
[7] = system: pig model of ischemia and reperfusion; experiment: Pig model of ischemia and reperfusion (hypercholesterolemic diet, 90 min occlusion, 2.5 h reperfusion); assay type: in vivo, pigs; conditions: 0.3 mg/kg i.v. after 75 min of ischemia
Protocol: Pigs were fed a hypercholesterolemic diet as in Example 11. After this 10-day diet period animals underwent a closed-chest 90 min mid-left anterior descending (LAD) coronary balloon occlusion. After 75 min of ischemia animals were randomized to intravenous infusion (femoral vein) of an active β-hydroxy acid derivative of simvastatin (R—OH—S; 0.3 mg/kg; n=12) or vehicle (0.9% NaCl; n=12). At minute 90, the balloon was deflated to achieve coronary artery reperfusion. Animals were reperfused for 2.5 h. Infarct size was determined morphometrically by Evan's Blue staining. To that end, 2.5 h post-reperfusion Evan's Blue dye was injected in the anesthetized pigs through the left atrium to outline the area-at-risk (AAR) after which the animals' hearts were arrested with potassium chloride and rapidly excised. Hearts were sectioned into 6 transverse slices parallel to the atrioventricular ring. Consecutive slices were alternatively collected for infarct size analysis (triphenyl tetrazolium chloride) and molecular studies of the ischemic and non-ischemic myocardium. Tissue samples obtained from the ischemic and non-ischemic myocardium all animals were pulverized and homogenized in Tripure® or lysis buffer for RNA and protein isolation, respectively. Protein levels of apoptosis markers (truncated-caspase-3) was assessed. Paraffin-embedded ischemic myocardial tissue of all animals was cut into 5-μm-thick slices for 8-hydroxyguanosine staining (Abcam ab48508), a measurement indicative of oxidative stress-induced DNA-damage, and OCT-embedded ischemic myocardial tissue of all animals was stained for neutrophil detection (anti-Neutrophil Elastase; Abcam). Staining was calculated by a single blinded observer from an average of 5-fields/animal as % of stained area. Images were captured by Nikon Eclipse 80i microscope and digitized by Retiga 1300i Fast camera. In addition, mitochondrial membrane potential (Δψm) was measured in the ischemic myocardium of all animals by flow cytometry using the ratiometric dye 5,5′,6,6′-tetrachloro-1,1′,3,3′-tetraethylbenzimidazol carbocyanine iodide (JC-1; Molecular Probes). Values were expressed as red fluorescence activity. Isolated mitochondria treated with valinomycin (Sigma), which decreases Δψm, were used as control (data not shown).

[8] = 30, 60 and 90 min after MI induction, vs controls
[9] = 90 min ischemic period, vs absence of treatment
[10] = ischemic myocardium, vs non-treated pigs
[11] = prior (0 min) or post (90 min) ischemic induction
[12] = ischemic myocardial tissue, 2.5 h reperfusion

CC(ONC(=O)c1cc(C(F)(F)F)cc(C(F)(F)F)c1)C(=O)Nc1ccc(Cl)cc1 (stereo not drawn) [CCG1423]
reduction of oxidative damage (8-OH-dG staining) within the ischemic myocardium [1]: 70%
reduction of size of infarction (% of total LV wall) [1]: around 50%

c1cc(-c2cnn3cc(-c4ccc(OCCN5CCCCC5)cc4)cnc23)ccn1 [Compound C]
effect on infarct size reduction achieved by atorvastatin [2]: abolished
effect on protection against oxidative damage (8-OHdG staining) [2]: abolished

CC(C)c1c(C(=O)Nc2ccccc2)c(-c2ccccc2)c(-c2ccc(F)cc2)n1CC[C@@H](O)C[C@@H](O)CC(=O)O [atorvastatin]
IMA (Ischemic Modified Albumin) blood levels [3, 8]: significantly reduced
Myoglobin blood levels [3, 8]: significantly reduced
overall reduction of CFABP levels [3, 9]: more than 75%
overall reduction of IMA levels [3, 9]: more than 50%
overall reduction of myoglobin levels [3, 9]: more than 75%
total amount of RhoA protein in the ischemic myocardium (RhoA; 0.3 mg/kg i.v. at 15 min of ischemia, tissue at 90 min): not affected
RhoA activation in the ischemic myocardium (RhoA; single dose after the onset of ischemia, infarcted pigs): inhibits
reduction of size of infarction (% of total LV wall) [1]: around 50%
ischemia-induced eNOS activation (P-eNOS/eNOS) (eNOS): did not further enhance
levels of cleaved (active) caspase 3 (caspase-3; ischemic myocardium): reduced
total caspase-3 (caspase-3; myocardium): no changes
MCP-1 mRNA expression (MCP-1/CCL2; [10]): significantly reduced
MCP-1 protein expression (MCP-1/CCL2; [10]): significantly reduced
MCP-1 expression (MCP-1/CCL2; non-ischemic myocardial tissue): No changes
ischemia-triggered increase in MCP-1 expression, gene level ([4]; PBMC): markedly attenuated
ischemia-triggered increase in MCP-1 expression, protein level ([4]; PBMC): markedly attenuated
TF PBMC expression (mRNA) [4, 11]: did not modify
TLR4 PBMC expression (mRNA) [4, 11]: did not modify
reduction in scar size (rat model for ischemia): 60%
CFABP ([5]; already at 30 min): significant reduction
IMA ([5]; already at 30 min): significant reduction
Myoglobin ([5]; already at 30 min): significant reduction
Percentage of reduction of CFABP ([5]; vs control): 60-75%
Percentage of reduction of IMA ([5]; vs control): 60-75%
Percentage of reduction of Myoglobin ([5]; vs control): 60-75%
reduction in neutrophil myocardial infiltration [6]: 57%
total protein content of AMPK (AMPK; entire heart): No changes
levels of P-AMPK (AMPK; ischemic myocardium): significantly increased
levels of P-AMPK (AMPK; non-ischemic cardiac tissue): No changes

CCC(C)(C)C(=O)OC1CC(C)C=C2C=CC(C)C(CCC(O)CC(O)CC(=O)O)C21 (stereo not drawn) [β-OH-simvastatin, β-hydroxy acid form of simvastatin]
reduction of size of infarction (% of total LV wall) [1]: around 50%
size of myocardial damage (ischemic damage+reperfusion damage; infarct size) ([7]; assessed 2.5 h after reperfusion): decreased
expression of cleaved caspase-3 [7, 12]: significantly reduced
mitochondrial potential (JC-1) [7, 12]: preserved
oxidative stress (8-hydroxyguanosine staining) [7, 12]: decreased
recruitment of neutrophils [7, 12]: limited
